Laboratory results taken from patent US20170290886A1, “TREATMENT OF NEURODEVELOPMENTAL DISORDERS” (Academia Sinica, priority 2016, published 2017).
Where no end group is shown, it is not given here.

Experiments:
Format in all cases: in vivo, rat
MeCP2 SUMOylation = assay: In vitro SUMOylation assay for CA1 tissue
Experimental: Hippocampal CA1 tissue lysate was prepared in the same way as that prepared for western blot. For immunoprecipitating the MeCP2, the clarified lysate (0.5 mg) was immunoprecipitated with 3 μl of anti-MeCP2 antibody (Catalog No. 3456, Cell Signaling) at […] overnight. The protein A agarose beads ([…], 50% slurry, GE Healthcare, Barrington, Ill.) were added to the IP reaction product to catch the immune complex at […] for 3 h. The immune complex on beads were washed three times with washing buffer containing 20 mM HEPES (pH 7.4), 150 mM NaCl, 1 mM EDTA, 1% IGEPAL CA-630, 1 mM DTT, 50 mM β-glycerophosphate, 50 mM NaF, […] PMSF, […] and subject to in vitro SUMOylation reaction with the addition of recombinant PIAS1 protein (3 μl, Catalog No. BML-UW9960, Enzo Life
Sciences, Farmingdale, N.Y.), E1(1 μl), E2 (1 μl) and the SUMO1 (0.5 μl) proteins provided in the kit. In vitro SUMOylation assay was performed using the SUMO linkTM kit according to the manufacturer's instructions (Active Motif, Carlsbad, Calif.) and boiled in Laemmli sample buffer at 95° C. for 10 min. The in vitro SUMOylation product was subject to 8% SDS-PAGE followed by transferring onto the PVDF membrane (Millipore). The membrane was immunoblotted with anti-MeCP2 antibody (1:1000, Catalog No. 3456, Cell Signaling) or anti-SUMO1 antibody (1:4000, Catalog No. 40120, Active Motif). For determination of endogenous MeCP2 SUMOylation after PIAS1 siRNA transfection, no E1, E2, SUMO1 and PIAS1 proteins were added to the IP reaction product. The remaining procedures were the same as that for carrying out the in vitro SUMOylation assay.
Rats were anesthetized with pentobarbital (40 mg/kg) and subject to stereotaxic surgery. Two 23-gauge, stainless-steel, thin-wall cannulae were implanted bilaterally to the CA1 area of rat brain at the following coordinates: 3.5 mm posterior to the bregma, ±2.5 mm lateral to the midline and 3.4 mm ventral to the skull surface. After recovery from the surgery, NMDA (2 μg/μl), IGF-1 (100 ng/ml), CRF (100 ng/μl) and dexamethasone (30 ng/μl) were directly injected to the CA1 area at a rate of 0.1 μl/min. A total of 0.7 μl was injected to each side. For transient Mecp2 plasmid DNA transfection, 0.7 μg/μl plasmid DNA complex ([…]) was injected directly to CA1 area bilaterally in the rat brain using the non-viral transfection agent polyethyleneimine (PEI). Before injection, plasmid DNA was diluted in 5% glucose to a stock concentration of 2.77 μg/μl. Branched PEI of 25 kDa (Sigma, St. Louis, Mo.) was diluted to 0.1 M concentration in 5% glucose and added to the DNA solution. Immediately before injection, 0.1 M PEI was added to reach a ratio of PEI nitrogen per DNA phosphate equals to 10. […]

[1] = test system: MeCP2 phosphorylation at Ser-421; assay: MeCP2 phosphorylation at Ser-421 in CA1 area (western blot); settings: 1 hr
Experimental: (§1) The E3 SUMO-protein ligase PIAS1, MeCP2, Flag, V5 and Myc, the clarified lysate (0.5 mg) was immunoprecipitated by mixed with 0.5 μl of anti-PIAS1 antibody (Catalog No. 2474-1, Epitomics, Burlingame, Calif.), 2 μl of anti-MeCP2 antibody (Catalog No. 3456, Cell Signaling, Danvers, Mass.), 2 μl of anti-Flag M2 antibody (Catalog No. F1804, Sigma-Aldrich, St. Louis, Mo.), 1 μl of anti-VS antibody (Catalog No. MCA2895, AbD Serotec, Kidlington, UK) and 2 μl of anti-Myc antibody (Catalog No. 05-419, Millipore, Bedford, Mass.) at 4° C., and allowed the mixture to react overnight. Twenty microliter of rabbit or mouse IgG was used in the control group. The protein A or G magnetic beads ([…], 50% slurry, GE Healthcare, Barrington, IL) were added to the IP reaction product to catch the immune complex at 4° C. for 3 h. The immune complex on beads were washed three times with washing buffer containing 20 mM HEPES (pH 7.4), 150 mM NaCl, 1 mM EDTA, 1% IGEPAL CA-630, 1 mM DTT, 50 mM β-glycerophosphate, 50 mM NaF, 10 mg/ml PMSF, 4 µg/ml aprotinin, 4 μg/ml leupeptin and 4 μg/ml pepstatin, and then subject to 8% SDS-PAGE followed by transferring onto the Nitrocellulose (NC) membrane (GE Healthcare). […] The protein bands were quantified by using the NIH Image J Software. […]

PIAS1 = PIAS1 expression in CA1 area (western blot); settings: siRNA 8 pmol; FIG. 2h lower panel
Experimental: as §1

## CN[C@H](CC(=O)O)C(=O)O [NMDA, N-methyl-D-aspartate]
MeCP2 SUMOylation; NMDA 2 μg/μl injected to CA1 area, 1 hr, vs Flag-vector + PBS, FIG. 3b
  level of MeCP2 SUMOylation: increased the level of MeCP2 SUMOylation
[1]; NMDA 2 μg/μl injected to CA1 area, FIG. 3b
  phosphorylation level of MeCP2 at Ser-421: increased the phosphorylation level of MeCP2 at Ser-421

## CRF: Corticotropin-releasing factor, purchased from Sigma-Aldrich (SEEPPISLDLTFHLLREVLEMARAEQLAQQAHSNRKLMEII; ends and bridges not checked; UniProt P06850 154-194, looked up)
MeCP2 SUMOylation; CRF injected to CA1 area, 1 hr later, vs PBS, FIG. 3d
  level of MeCP2 SUMOylation: markedly increased the level of MeCP2 SUMOylation

## IGF-1: Insulin-like growth factor-1, purchased from Sigma-Aldrich
MeCP2 SUMOylation; IGF-1 100 ng/ml injected to CA1 area, 1 hr later, vs PBS, FIG. 3c
  level of MeCP2 SUMOylation: significantly increased the level of MeCP2 SUMOylation
[1]; IGF-1 100 ng/ml injected to CA1 area, FIG. 3c
  phosphorylation level of MeCP2 at Ser-421: increased the phosphorylation level of MeCP2 at Ser-421

## PIAS1 siRNA: siRNA against PIAS1, SEQ ID NO: 18 and 19 (chain 1 UCCGGAUCAUUCUAGAGCUTT; chain 2 AGCUCUAGAAUGAUCCGGATT; chemistry not given here)
MeCP2 SUMOylation; siRNA 8 pmol to CA1 area, 48 hrs later, vs control siRNA, FIG. 2g, 2h
  level of endogenous MeCP2 SUMOylation: significantly decrease the level of endogenous MeCP2 SUMOylation
PIAS1
  PIAS1 expression in CA1 area: decreased PIAS1 expression
